Series [1] is described as follows: The drug is tested on Z-009 corresponding to pig gut metagenome with ENA study accession number: PRJEB37062 and ENA sample accession number: ERS12561809 for biotransformation under anaerobic condition. The drug concentrations were measured over 9 timepoints collected between 0 and 24 hours of incubation by liquid-chromatography-coupled mass spectrometry (LC–MS). To be noted: 2 µM.

The conditions of series [2]: human gut metagenome, 24 h, 2 µM.
A short description of series [3]: The drug is tested on WLS-038 corresponding to human gut metagenome with ENA study accession number: PRJEB37062 and ENA sample accession number: ERS12561745 for biotransformation under anaerobic condition. The drug concentrations were measured over 9 timepoints collected between 0 and 24 hours of incubation by liquid-chromatography-coupled mass spectrometry (LC–MS). The following applies: 2 µM.

The conditions of series [4]: human gut metagenome, 24 h, 2 µM. The source holds these as a separate data set.
For series [5] the following is noted: human gut metagenome, 24 h, 2 µM. The source holds these as a separate data set.
Series [6] can be described thus: The drug is tested on Z-021 corresponding to metagenome with ENA study accession number: PRJEB37062 and ENA sample accession number: ERS12561820 for biotransformation under anaerobic condition. The drug concentrations were measured over 9 timepoints collected between 0 and 24 hours of incubation by liquid-chromatography-coupled mass spectrometry (LC–MS). The following applies: 2 µM.

Series [7] in a line: The drug is tested on WLS-220 corresponding to human gut metagenome with ENA study accession number: PRJEB37062 and ENA sample accession number: ERS12561769 for biotransformation under anaerobic condition. The drug concentrations were measured over 9 timepoints collected between 0 and 24 hours of incubation by liquid-chromatography-coupled mass spectrometry (LC–MS). To be noted: 2 µM.

For series [8] the following is noted: human gut metagenome, 24 h, 2 µM. This is another data set of the same source.
For series [9] the following is noted: human gut metagenome, 24 h, 2 µM. The source holds these as a separate data set.
The conditions of series [10]: human gut metagenome, 24 h, 2 µM. This is another data set of the same source.
Series [11] is described as follows: The drug is tested on Z-026 corresponding to metagenome with ENA study accession number: PRJEB37062 and ENA sample accession number: ERS12561825 for biotransformation under anaerobic condition. The drug concentrations were measured over 9 timepoints collected between 0 and 24 hours of incubation by liquid-chromatography-coupled mass spectrometry (LC–MS). To be noted: 2 µM.

Series [12] is described as follows: The drug is tested on Z-023 corresponding to metagenome with ENA study accession number: PRJEB37062 and ENA sample accession number: ERS12561822 for biotransformation under anaerobic condition. The drug concentrations were measured over 9 timepoints collected between 0 and 24 hours of incubation by liquid-chromatography-coupled mass spectrometry (LC–MS). To be noted: 2 µM.

The nature of series [13]: The drug is tested on Z-024 corresponding to pig gut metagenome with ENA study accession number: PRJEB37062 and ENA sample accession number: ERS12561823 for biotransformation under anaerobic condition. The drug concentrations were measured over 9 timepoints collected between 0 and 24 hours of incubation by liquid-chromatography-coupled mass spectrometry (LC–MS). To be noted: 2 µM.

The conditions of series [14]: human gut metagenome, 24 h, 2 µM. The source holds these as a separate data set.
A short description of series [15]: The drug is tested on Z-018 corresponding to pig gut metagenome with ENA study accession number: PRJEB37062 and ENA sample accession number: ERS12561817 for biotransformation under anaerobic condition. The drug concentrations were measured over 9 timepoints collected between 0 and 24 hours of incubation by liquid-chromatography-coupled mass spectrometry (LC–MS). The following applies: 2 µM.

Series [16] is described as follows: The drug is tested on Z-028 corresponding to mouse gut metagenome with ENA study accession number: PRJEB37062 and ENA sample accession number: ERS12561827 for biotransformation under anaerobic condition. The drug concentrations were measured over 9 timepoints collected between 0 and 24 hours of incubation by liquid-chromatography-coupled mass spectrometry (LC–MS). The following applies: 2 µM.

Series [17] is described as follows: The drug is tested on WLS-090 corresponding to human gut metagenome with ENA study accession number: PRJEB37062 and ENA sample accession number: ERS12561753 for biotransformation under anaerobic condition. The drug concentrations were measured over 9 timepoints collected between 0 and 24 hours of incubation by liquid-chromatography-coupled mass spectrometry (LC–MS). To be noted: 2 µM.

Series [18] can be described thus: The drug is tested on WLS-086 corresponding to human gut metagenome with ENA study accession number: PRJEB37062 and ENA sample accession number: ERS12561752 for biotransformation under anaerobic condition. The drug concentrations were measured over 9 timepoints collected between 0 and 24 hours of incubation by liquid-chromatography-coupled mass spectrometry (LC–MS). To be noted: 2 µM.

Series [19] in a line: The drug is tested on WLS-310 corresponding to human gut metagenome with ENA study accession number: PRJEB37062 and ENA sample accession number: ERS12561785 for biotransformation under anaerobic condition. The drug concentrations were measured over 9 timepoints collected between 0 and 24 hours of incubation by liquid-chromatography-coupled mass spectrometry (LC–MS). The following applies: 2 µM.

Series [20] can be described thus: The drug is tested on Z-010 corresponding to metagenome with ENA study accession number: PRJEB37062 and ENA sample accession number: ERS12561810 for biotransformation under anaerobic condition. The drug concentrations were measured over 9 timepoints collected between 0 and 24 hours of incubation by liquid-chromatography-coupled mass spectrometry (LC–MS). The following applies: 2 µM.

Each structure is given as a SMILES string.
Further: call rule not given here.

For `OCCN(CCO)c1nc(N2CCCCC2)c2nc(N(CCO)CCO)nc(N3CCCCC3)c2n1` [DIPYRIDAMOLE], the “Bacterial Biotransformation” value in [1] is listed as “Compound metabolized”; in series [2], “Compound NOT metabolized”; in [3], “Compound NOT metabolized”; in [4], “Compound metabolized”; in series [5], “Compound metabolized”; in series [6], “Compound metabolized”. Further, the “Bacterial Biotransformation” value in series [7] is listed as “Compound metabolized”; in series [8] it was “Compound metabolized”; in series [9], “Compound NOT metabolized”; in [10], “Compound metabolized”; in series [11] it was “Compound metabolized”; in series [12], “Compound metabolized”. The “Bacterial Biotransformation” value in [13] is “Compound metabolized”; in [14] it was “Compound metabolized”; in [15], “Compound metabolized”; in series [16], “Compound NOT metabolized”; in [17], “Compound metabolized”; in series [18], “Compound metabolized”. For the same compound, the “Bacterial Biotransformation” value in [19] and in [20] was “Compound metabolized” in each case.

On to `CCN(CC)CCNC(=O)c1ccc(NC(C)=O)cc1` [ACECAINIDE], for which the “Bacterial Biotransformation” value in series [1], in series [2], in series [3], in [4], in [5] and in series [6] was “Compound NOT metabolized” throughout. For the same compound, the “Bacterial Biotransformation” value in [7], in [8], in [9], in series [10], in series [11] and in [12] was “Compound NOT metabolized” in each case. The “Bacterial Biotransformation” value was “Compound NOT metabolized” in series [13]; “Compound NOT metabolized” in [14]; “Compound NOT metabolized” in series [15]; “Compound NOT metabolized” in series [16]; “Compound metabolized” in series [17]; “Compound metabolized” in series [18]. The “Bacterial Biotransformation” value was “Compound metabolized” in [19] and “Compound NOT metabolized” in series [20].

With `Br.CN1CCC[C@@H]1Cc1c[nH]c2ccc(CCS(=O)(=O)c3ccccc3)cc12` [ELETRIPTAN HYDROBROMIDE], the “Bacterial Biotransformation” value in [1] is given as “Compound NOT metabolized”; in series [2] it was “Compound NOT metabolized”; in series [3], “Compound NOT metabolized”; in [4] it was “Compound NOT metabolized”; in [5], “Compound metabolized”; in series [6] it was “Compound NOT metabolized”. Further, the “Bacterial Biotransformation” value is given as “Compound metabolized” in series [7]; “Compound NOT metabolized” in series [8]; “Compound NOT metabolized” in series [9]; “Compound NOT metabolized” in series [10]; “Compound NOT metabolized” in series [11]; “Compound NOT metabolized” in series [12]. The “Bacterial Biotransformation” value in series [13] is listed as “Compound NOT metabolized”; in [14], “Compound metabolized”; in series [15], “Compound NOT metabolized”; in series [16], “Compound NOT metabolized”; in series [17] it was “Compound metabolized”; in series [18], “Compound metabolized”. The figures for the “Bacterial Biotransformation” value in series [19] and in series [20] were “Compound metabolized” and “Compound NOT metabolized”, respectively.

On to `CCc1cccc2c3c([nH]c12)C(CC)(CC(=O)O)OCC3` (stereo not given) [ETODOLAC], for which the “Bacterial Biotransformation” value is “Compound NOT metabolized” in series [1]; “Compound metabolized” in series [2]; “Compound metabolized” in series [3]; “Compound metabolized” in series [4]; “Compound metabolized” in series [5]; “Compound NOT metabolized” in series [6]. The “Bacterial Biotransformation” value in series [7] is “Compound metabolized”; in [8] it was “Compound NOT metabolized”; in series [9], “Compound metabolized”; in series [10], “Compound metabolized”; in series [11], “Compound NOT metabolized”; in series [12], “Compound NOT metabolized”. Further, the “Bacterial Biotransformation” value in [13] is “Compound NOT metabolized”; in series [14], “Compound metabolized”; in series [15] it was “Compound metabolized”; in series [16] it was “Compound NOT metabolized”; in series [17], “Compound metabolized”; in series [18] it was “Compound metabolized”. Besides, the “Bacterial Biotransformation” value is listed as “Compound metabolized” in series [19] and “Compound NOT metabolized” in series [20].

With `c1ccc2[nH]c(-c3cscn3)nc2c1` [THIABENDAZOLE], the “Bacterial Biotransformation” value in series [1], in series [2], in [3], in [4], in series [5] and in series [6] was “Compound NOT metabolized” throughout. The “Bacterial Biotransformation” value in series [7], in [8], in [9], in series [10], in series [11] and in [12] was “Compound NOT metabolized” in each case. In addition, the “Bacterial Biotransformation” value in series [13] is reported as “Compound NOT metabolized”; in series [14] it was “Compound NOT metabolized”; in series [15], “Compound NOT metabolized”; in series [16] it was “Compound NOT metabolized”; in [17] it was “Compound metabolized”; in series [18], “Compound metabolized”. Moreover, the “Bacterial Biotransformation” value in [19] and in [20] was “Compound NOT metabolized” each time.
